Values of other authors, collected in patent US20240317750A1, “An Efficient Process for the Synthesis of Methylliberine and Polymorphs Thereof” (Fertis India Pvt. Ltd., priority 2021, published 2024).

Conditions: background statement, available toxicological information; no test described

For `COc1nc2c(c(=O)n1C)n(C)c(=O)n2C` [methylliberine, 2-Methoxy-1,7,9-trimethyl-7,9-dihydro-1H-purine-6,8-dione], the genotoxicity is listed as “does not cause any genotoxicity”.
